{
  "source": "patent US20100137315A1",
  "about": "“Sphingosine Kinase Inhibitors and Methods of Their Use” (APOGEE BIOTECHNOLOGY CORPORATION, priority 2005, published 2010)",
  "key": {"[1]": {"test": "Oral pharmacokinetics in mice", "type": "in vivo", "details": "mouse, whole blood; for AUC(0-inf): 100 mg/kg oral gavage in PEG400, female Swiss-Webster mice, blood", "description": "Oral pharmacokinetic studies were performed on Compound 8. The compound was dissolved in PEG400 and administered to female Swiss-Webster mice at a dose of 100 mg/kg by oral gavage. Mice were anesthetized and blood was removed via cardiac puncture at 5 minutes, 30 minutes, 1, 2, and 8 hours. Concentrations of the test compounds were determined using liquid-liquid extraction, appropriate internal standards and reverse phase HPLC with UV detection. Control blood samples were run to identify compound-specific peaks. Pharmacokinetic parameters were calculated using the WINNONLIN analysis software package (Pharsight). Non-compartmental and compartmental models were tested, with the results shown in Table 8 derived from the best fit equations."}, "[2]": {"system": "mice", "test": "Chronic DSS-colitis model of IBD (35-day)", "type": "in vivo, mouse", "description": "FIG. 8. Effects of Compound 8 on the […] (DAI) in the chronic DSS-colitis model. Mice received 2 cycles (7 days per cycle) of DSS (1.5% cycle 1 and 1% cycle 2), 2 cycles of normal drinking water and were randomized by DAI on Day 28 into groups of 8 mice. The mice were then treated as follows: No DSS (▪)— normal drinking water and orally dosed with PEG400 every day for 7 days (water control); DSS alone (▴)— drinking water containing 1.5% DSS and orally dosed with PEG daily for 7 days; DSS+Compound 8 (▾)-drinking water containing 1.5% DSS and orally dosed with Compound 8 (50 mg/kg) every day for 7 days; DSS+Dipentum (♦)— drinking water containing 1.5% DSS and orally dosed with Dipentum (50 mg/kg). *p<0.001 versus No DSS group.\nFIG. 9. Effects of Compound 8 on S1P levels in the colons of the animals in the chronic DSS-colitis model. Colon samples from mice described in FIG. 8 were extracted and assayed for the levels of S1P by LC/MS/MS. Values represent the mean±sd for 8 samples per group; * p<0.05 versus No DSS group.\nA 35-day model of IBD was used to evaluate the effectiveness of the SK inhibitor in mice that experience multiple cycles of DSS-induced inflammation. This chronic model is similar to the acute model, except that the DSS concentration in the drinking water is lower and animals receive periodic exposure to DSS (DSS on days 1-7, water on Days 8-13, DSS on day 14-21, water on Days 22-27 and then DSS until the completion of the study on Day 35). In these experiments, treatment of the mice with an SK inhibitor or Dipentum began on Day 28 and continued daily until the completion of the study. The DAI index was monitored every other day until Day 28 and then daily until Day 35. Animals were sacrificed on Day 35, and changes in the colon length and cytokine profiles were measured.\nAs a final measure of the effects of the SK inhibitors in this chronic model, S1P levels were assayed in the colons of the DSS-treated animals using an LC-MS/MS method. […] Ratios of analyte to internal standard for each sphingolipid were determined. […]"}, "[3]": {"system": "human endothelial cells", "test": "TNFα-induced PGE2 production (Cox-2 activity), ELISA", "type": "cell-based", "details": "100 ng TNFα/mL, 18 hours, 10 μg/mL compound", "description": "(§1) FIG. 3. Inhibition of TNFα-induced Cox-2 activity by Compound 8. Rat IEC6 cells (Panel A) or human endothelial cells (Panel B) were incubated for 18 hours with dimethylsulfoxide (DMSO) as a solvent control, or 100 ng of TNFα/mL in the presence of DMSO or 10 μg/mL of Compound 8. Levels of PGE2 secreted into the medium were quantified by ELISA. Values represent the mean±sd for triplicate samples in a typical experiment.\n(§2) To determine the effects of the SK inhibitors on Cox-2 activity, an ELISA assay was used to measure PGE2 production by IEC6 rat intestinal epithelial cells and human endothelial cells treated with TNFα."}, "[4]": {"system": "IEC6 rat intestinal epithelial cells", "test": "TNFα-induced PGE2 production (Cox-2 activity), ELISA", "type": "cell-based", "details": "100 ng TNFα/mL, 18 hours, 10 μg/mL compound", "description": "as §1, §2"}, "[5]": {"details": "female, Swiss-Webster, 100 mg/kg oral gavage, mice"}},
  "note": "Read-outs that look alike come from different tables or passages of the source.",
  "data": [
    {"smiles": "CCCC(=O)Oc1ccc(C=CC(=O)Nc2nc(-c3ccc(Cl)cc3)cs2)cc1OC", "note": "[Compound 8, Butyric acid 4-{2-[4-(4-chloro-phenyl)-thiazol-2-ylcarbamoyl]-vinyl}-2-methoxy-phenyl ester]", "values": [
      {"measurement": "Cmax", "setting": "[1]; [5]", "value": 34.4, "unit": "µM"},
      {"measurement": "Tmax", "setting": "[1]; [5]", "value": 1, "unit": "h"},
      {"measurement": "half-life", "setting": "[1]; [5]", "value": 1910, "unit": "min"},
      {"measurement": "AUC(0-inf)", "setting": "[1]; read-out: AUC0 → ∞ (μM*h)", "value": 1500, "unit": "µM·h"},
      {"measurement": "AUC(0-inf)", "setting": "[1]; read-out: AUC0 → ∞ (μg*h/mL)", "value": 475, "unit": "µg·h/mL"},
      {"measurement": "colon length", "setting": "[2]; 50 mg/kg oral daily Days 28-35, Day 35", "value": "5.8±0.1", "unit": "cm"},
      {"measurement": "increase in DAI during third DSS exposure", "setting": "[2]; 50 mg/kg oral daily Days 28-35, P<0.001 on Day 35", "value": "significantly suppressed"},
      {"measurement": "S1P levels in colon (LC-MS/MS)", "setting": "[2]; oral 50 mg/kg daily, 7 days prior to sacrifice", "value": "significant reductions"},
      {"measurement": "TNFα-induced Cox-2 activity (PGE2 production)", "setting": "[3]", "value": "strongly suppressed"},
      {"measurement": "TNFα-induced Cox-2 activity (PGE2 production)", "setting": "[4]", "value": "strongly suppressed"}
    ]}
  ]
}
